Measured values as given in the OligoGym collection.
Where “and” joins values, the source holds several entries; their conditions need not be identical. Equal values may be shown once. After the bases stand the sugars from the 5' end (letter, count) and the backbone: PS all phosphorothioate, else s phosphorothioate and o phosphodiester by linkage. Methylation of C is not given here. e = 2'-O-(2-methoxyethyl) (MOE); l = locked nucleic acid (LNA); k = constrained ethyl (cEt); d = 2'-deoxy (DNA)

Key:
SNHG14 = conditions: ASO, Human Neuronal Cell, 7.5 µM
APOL1 = conditions: ASO

Sequence	target mRNA inhibition (APOL1; A431, 2 µM) [%]	target mRNA inhibition (APOL1; A431, 0.0625 µM)	target mRNA inhibition (APOL1; A431, 0.25 µM)	target mRNA inhibition (APOL1; A431, 1 µM)	other results
AAAATCTCAACTACCATTT (sugars l6 d6 l2 d2 l3, PS)	–	–	–	–	target mRNA inhibition (SNHG14): 23%
AAAATCTCAACTACCATTTT (sugars lldldlddddddddlldlll, PS)	–	–	–	–	target mRNA inhibition (SNHG14): 24%
AAAATTATTTATACACCATC (sugars ldldllddddddddlldlll, PS)	–	–	–	–	target mRNA inhibition (SNHG14): 59%
AAAATTATTTATACACCATC (sugars lldllldddddddlddllll, PS)	–	–	–	–	target mRNA inhibition (SNHG14): 52%
AAAATTATTTATACACCATC (sugars lllldlddddddddldllll, PS)	–	–	–	–	target mRNA inhibition (SNHG14): 59%
AAAGATCATTCTCAACAA (sugars l1 d1 l1 d9 l6, PS)	–	–	–	–	target mRNA inhibition (SNHG14): 61%
GTTCAAAAGCAGCATT (sugars kdddddkekekddddd, PS)	79	–	–	–	–
GTTCAAAAGCAGCATT (sugars kkkddddkdkdkdddd, PS)	23	–	–	–	–
GTTCAAAAGCAGCATT (sugars kkkddddkekeddddd, PS)	85	–	–	–	–
GTTCTAACTCTTGGGC (sugars k2 d4 e3 k2 d5, PS)	91	35%	65%	85%	target mRNA inhibition (APOL1; A431, 0.0156 µM): 20%
GTTCTAACTCTTGGGC (sugars k4 d9 k3, PS)	–	74%	85%	92%	–
GTTCTAACTCTTGGGC (sugars kkddddekekeddddd, PS)	78	–	–	–	–
GTTCTAACTCTTGGGC (sugars kkddddkdkdkddddd, PS)	90	28%	59%	75%	target mRNA inhibition (APOL1; A431, 0.0156 µM): 3%
GTTCTAACTCTTGGGC (sugars kkddddkekekkdddd, PS)	52	–	–	–	–
GTTGTCCAGAGCTTTA (sugars k4 d9 k3, PS)	–	56%	72%	79%	–
GTTTTGTAAGTGCAAC (sugars kdddddkekekddddd, PS)	92	–	–	–	–
GTTTTGTAAGTGCAAC (sugars kddddkekekeddddd, PS)	73	–	–	–	–
GTTTTGTAAGTGCAAC (sugars kkkddddkekekdddd, PS)	59	–	–	–	–
GTTTTTACAATAGTGC (sugars k4 d9 k3, PS)	–	74%	91%	96%	–
TAAGTATTGCCAGCTA (sugars k3 d4 k3 e1 d5, PS)	65	–	–	–	–
TAATTCTATTAGAGGG (sugars k4 d9 k3, PS)	–	17%	45%	69%	–

Sequence	target mRNA inhibition (APOL1; A431, 2 µM) [%]	target mRNA inhibition (APOL1; A431, 0.0625 µM)	target mRNA inhibition (APOL1; A431, 0.25 µM)	target mRNA inhibition (APOL1; A431, 1 µM)	other results
TAATTCTATTAGAGGG (sugars kkddddkekekddddd, PS)	34	–	–	–	–
TACCGGGTAAGAGCGA (sugars k4 d9 k3, PS)	–	32%	64%	78%	–
TATATTTGATCCTCAA (sugars kkddddkekekkdddd, PS)	77	–	–	–	–
TATCAGATGGGTACTT (sugars k2 d4 e3 k2 d5, PS)	70	–	–	–	–
TATTGGTTCAAAAGCA (sugars k4 d9 k3, PS)	–	29%	67%	86%	–
TATTTCTTGATGTGGT (sugars k2 d4 e3 k2 d5, PS)	99	78%	94%	98%	target mRNA inhibition (APOL1; A431, 0.0156 µM): 37%
TATTTCTTGATGTGGT (sugars kkdddddkekeddddd, PS)	99	59%	87%	96%	target mRNA inhibition (APOL1; A431, 0.0156 µM): 10%
TATTTCTTGATGTGGT (sugars kkddddkekekkdddd, PS)	71	–	–	–	–
TCAATTTGTCAAGGCT (sugars k4 d9 k3, PS)	–	46% and 59%	78% and 83%	90% and 91%	–
TCAGATGGGTACTTCT (sugars k3 d4 k3 e1 d5, PS)	82	–	–	–	–
TCAGATGGGTACTTCT (sugars kkdddddkekeddddd, PS)	89	–	–	–	–
TCAGGTGACTACATTT (sugars k4 d9 k3, PS)	–	47%	67%	84%	–
TCATTTGCTAGGTGCC (sugars k4 d9 k3, PS)	–	43%	72%	85%	–
TCTATTAGAGGGCTAG (sugars k2 d4 e4 k2 d4, PS)	44	–	–	–	–
TCTATTAGAGGGCTAG (sugars kkkddddkekekdddd, PS)	23	–	–	–	–
TCTCATGGTACAGGAG (sugars kddddkekekeddddd, PS)	55	–	–	–	–
TGAAACATTCCTGGAC (sugars k4 d9 k3, PS)	–	28% and 8%	55% and 32%	80% and 65%	–
TGAAGATTGGCTCTGG (sugars k2 d4 e3 k2 d5, PS)	82	–	–	–	–
TGAAGATTGGCTCTGG (sugars kkkddddkekeddddd, PS)	54	–	–	–	–
TGAGTATTGTTTTTGT (sugars k2 d4 e3 k2 d5, PS)	87	–	–	–	–
TGGATGGAAGGAACCT (sugars k4 d9 k3, PS)	–	3%	44%	36%	–

Sequence	target mRNA inhibition (APOL1; A431, 2 µM) [%]	target mRNA inhibition (APOL1; A431, 0.0625 µM)	target mRNA inhibition (APOL1; A431, 0.25 µM)	target mRNA inhibition (APOL1; A431, 1 µM)	other results
TGGGAATTATGGAATT (sugars kkkddddkekekdddd, PS)	56	–	–	–	–
TGTAAGTGCAACCAAT (sugars k4 d9 k3, PS)	–	19%	46%	78%	–
TGTATTTCTTGATGTG (sugars k3 d4 k3 e1 d5, PS)	87	–	–	–	–
TGTGATGTGGGACTTG (sugars k4 d9 k3, PS)	–	32%	70%	84%	–
TGTTATATTTGATCCT (sugars k3 d4 k3 e1 d5, PS)	89	–	–	–	–
TGTTATATTTGATCCT (sugars kdddddkekekddddd, PS)	79	–	–	–	–
TGTTATATTTGATCCT (sugars kkddddkekekddddd, PS)	81	–	–	–	–
TGTTATATTTGATCCT (sugars kkkddddkekekdddd, PS)	59	–	–	–	–
TGTTATCCTCAAGCTC (sugars k4 d9 k3, PS)	–	37% and 17%	–	–	–
TGTTCTAACTCTTGGG (sugars k2 d4 e3 k2 d5, PS)	97	61%	84%	93%	target mRNA inhibition (APOL1; A431, 0.0156 µM): 24%
TGTTCTAACTCTTGGG (sugars k3 d4 k3 e1 d5, PS)	89	–	–	–	–
TGTTCTAACTCTTGGG (sugars kkkddddkekeddddd, PS)	88	–	–	–	–
TTATACCAGTGTCTTC (sugars kddddkekekeddddd, PS)	82	–	–	–	–
TTATATTTGATCCTCA (sugars k2 d4 e4 k2 d4, PS)	91	30%	61%	87%	target mRNA inhibition (APOL1; A431, 0.0156 µM): 0%
TTATATTTGATCCTCA (sugars kdddddkekekddddd, PS)	82	–	–	–	–
TTATATTTGATCCTCA (sugars kkdddddkekeddddd, PS)	96	38%	74%	92%	target mRNA inhibition (APOL1; A431, 0.0156 µM): 7%
TTATATTTGATCCTCA (sugars kkkddddkekekdddd, PS)	92	–	–	–	–
TTATGAAATTATTGGT (sugars kkddddekekeddddd, PS)	74	–	–	–	–
TTATGAAATTATTGGT (sugars kkddddkekekddddd, PS)	82	–	–	–	–
TTATGAAATTATTGGT (sugars kkddddkekekkdddd, PS)	63	–	–	–	–
TTATGAAATTATTGGT (sugars kkkddddkekekdddd, PS)	86	–	–	–	–

Sequence	target mRNA inhibition (APOL1; A431, 2 µM) [%]	target mRNA inhibition (APOL1; A431, 0.0625 µM)	target mRNA inhibition (APOL1; A431, 0.25 µM)	target mRNA inhibition (APOL1; A431, 1 µM)	other results
TTATGGAATTGCAGAT (sugars k4 d9 k3, PS)	–	38%	67%	86%	–
TTATTCTCATGGTACA (sugars kkkddddkekekdddd, PS)	53	–	–	–	–
TTCTATTAGAGGGCTA (sugars k2 d4 e3 k2 d5, PS)	87	–	–	–	–
TTCTATTAGAGGGCTA (sugars k3 d4 k3 e1 d5, PS)	85	–	–	–	–
TTCTATTAGAGGGCTA (sugars kekddddeekkddddd, PS)	94	–	–	–	–
TTCTATTAGAGGGCTA (sugars kkdddddkekeddddd, PS)	94	56%	81%	92%	target mRNA inhibition (APOL1; A431, 0.0156 µM): 26%
TTCTATTAGAGGGCTA (sugars kkkddddkdkdkdddd, PS)	78	–	–	–	–
TTCTATTAGAGGGCTA (sugars kkkddddkekeddddd, PS)	91	–	–	–	–
TTCTCATGGTACAGGA (sugars k2 d4 e3 k2 d5, PS)	86	–	–	–	–
TTCTCATGGTACAGGA (sugars k2 d4 e4 k2 d4, PS)	80	–	–	–	–
TTCTCATGGTACAGGA (sugars kkddddkdkdkddddd, PS)	89	–	–	–	–
TTCTTGATGTGGTGGG (sugars k4 d9 k3, PS)	–	58%	82%	91%	–
TTGGTTCAAAAGCAGC (sugars k4 d9 k3, PS)	–	72%	87%	92%	–
TTGTAAGTGCAACCAA (sugars kkddddkdkdkddddd, PS)	74	–	–	–	–
TTGTAAGTGCAACCAA (sugars kkddddkekekddddd, PS)	69	–	–	–	–
TTGTCTTGCAAGGTTG (sugars k4 d9 k3, PS)	–	55%	69%	85%	–
TTTAAACTCAGGTGAC (sugars kkddddkekekkdddd, PS)	16	–	–	–	–
TTTTGTTGCACCCTTG (sugars k4 d9 k3, PS)	–	76%	87%	92%	–
